Measured values taken from patent US9993538B2, “Peptide vaccine therapy for treatment of FRα-expressing tumors” (Galena Biopharma, Inc., priority 2015, dated 2018).
No end group written: not given here.

What was measured:
[1] = set-up: species or system human; details: in vivo
Description: Eligible patients were identified with endometrial, ovarian, fallopian tube or peritoneal cancer and were disease-free after standard of care therapies. Patients were surgically or naturally post-menopausal. Exclusion criteria included patients currently receiving immunosuppressive therapy to include chemotherapy, steroids or methotrexate, poor health (ECOG […]), evidence of end-organ dysfunction, pregnancy, breast feeding, history of autoimmune disease, and involvement in other experimental protocols (except with permission of the principal investigator of the other study). […]
The E39 peptide (FBP 191-199, EIWTHSYKV) was produced commercially by an FDA-compliant production facility for patient use. […] This dose (250 mcg) of GM-CSF has been previously determined to be a safe and effective dose, based on our prior work with NeuVax^6. […]
The phase I portion of this trial consisted of dose escalation to determine a safe and effective dose of the E39 peptide. […] Prior to the fourth inoculation, each patient was assessed for liver, renal, and hematopoietic dysfunction. […]
Standard local and systemic toxicities were collected and graded per the National Cancer Institute Common Terminology Criteria for Adverse Events, v4.03 toxicity scale. […] Systemic toxicity and inoculation site local reactions were also determined after 48-72 hours.

[2] = system: tumor-associated lymphocyte (TAL); details: cited from earlier work
[3] = Booster study: local reactions (LR) 48-72 hours after each booster, safety; format: in vivo, human; details: 500 mcg peptide + 250 mcg GM-CSF booster
Description: Booster inoculations of peptide vaccines may improve disease-free survival (DFS) (e.g., U.S. Pat. No. 8,222,214), but repeated boosting can theoretically lead to overstimulation and loss of vaccine-induced T cells. Therefore, to assess the use of the attenuated E39′ peptide as a booster, E39-vaccinated patients described in Example 1 were randomized to receive either E39 or E39′ as a booster to determine the effect on long-term E39-specific immunity. Patients in the VG received six intradermal E39 injections as described in Example 1 as a primary vaccination schedule (PVS). […]
Local reactions (LR) were recorded 48-72 hours after each booster. Immune response was determined by measurement of E39 specific CTL levels using a Dextramer reagents in accordance with the manufacturer's instructions (Immudex Limited, Copenhagen, Denmark) as previously described (e.g., Tario et al. Cytometry B Clin. Cytom. 2015; 88B:6-20; Baba J. Transl Med. 2010; 8:84), at R0 (baseline pre-vaccination), RC1(1 month after completion of PVS), RC6 (6 months after completion of PVS and before booster), RC7 (1 month after booster) and RC12 (6 months after booster and 12 months after completion of PVS). Demographic, safety, immunological, and DFS data were collected and evaluated.

EIWTHSYKV [E39, EIWTHSYKV]
patients experiencing grade 3 toxicity [1]: 1 patient

E41: FRα-derived immunogenic peptide E41 (FRα 245-253) (LLSLALMLL; UniProt P15328 245-253, looked up, fragment)
effect on TAL proliferation and anti-tumor function [2]: capable of enhancing tumor-associated lymphocyte (TAL) proliferation and anti-tumor function

EIWTFSTKV [E39′, EIWTFSTKV]
safety of booster [3]: safe
